Experiments:
ΔF508-CFTR = assay type: cell-based, human; settings: rescreen with repropagated Ad-siRNA; ΔF508-CFTR and YFP adenovirus; 10 microM forskolin and 100 microM genistein; threshold −2
Description: Accordingly, an assay to monitor CFTR-halide flux by using a reporter protein, halide-sensitive fluorescent protein YFP, is developed to measure the functional activity of CFTR. Cells expressing this reporter protein show enhanced fluorescence quenching of YFP by extracellular isomolar iodide solutions in the presence of activated CFTR. This is caused by the increased flux of iodide across the plasma membrane by CFTR. The fluorescence quenching is measured on a fluorescence plate reader.
Human lung epithelial cells are isolated from a ΔF508-CFTR patient, obtained after informed consent. These cells are stably transfected with ΔF508-CFTR expression plasmids and are named CFBE41o-cells (Gruenert et al., 2004). […]
CFBE41o-cells are transduced with the YFP fluorescent halide reporter adenoviral vector at a VPU of 2000 viral particles per cell, together with adenoviral vectors expressing ΔF508-CFTR, or as a positive control the wild-type CFTR. […] Plates are read in a fluorescent plate reader, equipped with injectors for the delivery of reagents to the well (Perkin-Elmer Envision 2102). Each well is read for 2 seconds at 485/530 nm (excitation/emission) prior to the addition of 110 microliter iodide-containing buffer (137 mM NaI, 2.7 mM KCl, 10 mM Na2HPO4, 1.76 mM KH2PO4 at pH 7.4). Fluorescent reading is continued for an additional 12 sec, sampling every 200 msec. […]

ΔF508 CFTR [1] = assay: Trans-epithelial chloride flux (short-circuit current, Ussing chamber) in CFTR ΔF508 homozygous primary bronchial epithelial cells; settings: primary CF bronchial epithelial cell culture on filter support; Ad-siRNA knockdown; forskolin 10 μM, genistein 50 μM
Description: A further validation of the correction of ΔF508 CFTR is the correction of trans-epithelial chloride transport in primary bronchial epithelial cell cultures from a CF patient, grown in a filter support. […] A standard drug addition protocol (Devor et al., 2000) can be used to detect transepithelial currents due to CFTR. Short-circuit current (Isc) across HBE primary cultures can be measured as described (Myerburg et al., 2006; Myerburg et al., 2008). Cells cultured on filter supports are mounted in modified Ussing chambers, and the cultures are continuously short-circuited with an automatic voltage clamp (Physiological Instruments, San Diego, Calif.). The basolateral bathing solution composition is: 120 mM NaCl, 25 mM NaHCO3, 3.3 mM KH2PO4, 0.8 mM K2HPO4, 1.2 mN MgCl2, 1.2 mM CaCl2, and 10 mM glucose. A basal-to-apical Cl gradient can be imposed by reducing the NaCl concentration of the apical bathing solution by replacing NaCl with equimolar Na-gluconate. The chambers are maintained at 37° C. and gassed continuously with a mixture of 95% O2-5% CO2 which fixed the pH at 7.4. Following a 5 min equilibration period, the baseline Isc is recorded. Sodium currents are blocked by addition of the epithelial sodium channel (ENaC) blocker, amiloride (10 μM), to the apical bath. […]

ΔF508 CFTR [2] = assay: Cell-surface expression of ΔF508 CFTR by cell-surface biotinylation and Western blot in CFBE41o-cells; assay type: cell-based, human
Description: This analysis allows a more quantitative measurement of the levels of restoration of cell-surface expressed ΔF508 CFTR, as well as the glycosylation status of the ΔF508 CFTR protein (Cheng et al., 1990). A preferred effect of a HIT would be increased cell-surface expression of ΔF508 CFTR, and especially “band C” (Cheng et al., 1990), fully glycosylated ΔF508 CFTR. The assay to measure cell surface expression of ΔF508-CFTR is performed in the following fashion: CFBE41o-cells are seeded in 60 mm cell culture dishes coated with 0.1 mg/mL bovine serum albumin (BSA), 0.03 mg/mL bovine collagen type 1 and 0.01 mg/mL human fibronectin. CFBE41o-cells are cultured in MEM containing 10% Fetal Bovine Serum, 2 mM glutamine, 100 IU/mL penicillin, 0.1 mg/mL streptomycine sulfate and 0.5 mg/mL hygromycin B at 37° C., 5% CO2 in a humidified chamber. One day after seeding, an aliquot of the Ad-siRNA is applied to each well. […] The supernatant is analyzed on Western blots (BioRad Criterion XT gels, 3-8% polyacrylamide #3450131). […] Quantification of the cell surface expression of ΔF508 CFTR was performed with Biorad Quantity One software.
Positive and negative controls for the biotinylation include incubation of cell culture at 27° C. for 48 hrs to correct misfolding and trafficking of ΔF508 CFTR, and omission of Ad-siRNAs respectively. No signal is detected when the biotinylation reagent was omitted. […]
Target sequence in this assay (P13569 other isoform, or with tags, fused parts or gaps DEL508-508): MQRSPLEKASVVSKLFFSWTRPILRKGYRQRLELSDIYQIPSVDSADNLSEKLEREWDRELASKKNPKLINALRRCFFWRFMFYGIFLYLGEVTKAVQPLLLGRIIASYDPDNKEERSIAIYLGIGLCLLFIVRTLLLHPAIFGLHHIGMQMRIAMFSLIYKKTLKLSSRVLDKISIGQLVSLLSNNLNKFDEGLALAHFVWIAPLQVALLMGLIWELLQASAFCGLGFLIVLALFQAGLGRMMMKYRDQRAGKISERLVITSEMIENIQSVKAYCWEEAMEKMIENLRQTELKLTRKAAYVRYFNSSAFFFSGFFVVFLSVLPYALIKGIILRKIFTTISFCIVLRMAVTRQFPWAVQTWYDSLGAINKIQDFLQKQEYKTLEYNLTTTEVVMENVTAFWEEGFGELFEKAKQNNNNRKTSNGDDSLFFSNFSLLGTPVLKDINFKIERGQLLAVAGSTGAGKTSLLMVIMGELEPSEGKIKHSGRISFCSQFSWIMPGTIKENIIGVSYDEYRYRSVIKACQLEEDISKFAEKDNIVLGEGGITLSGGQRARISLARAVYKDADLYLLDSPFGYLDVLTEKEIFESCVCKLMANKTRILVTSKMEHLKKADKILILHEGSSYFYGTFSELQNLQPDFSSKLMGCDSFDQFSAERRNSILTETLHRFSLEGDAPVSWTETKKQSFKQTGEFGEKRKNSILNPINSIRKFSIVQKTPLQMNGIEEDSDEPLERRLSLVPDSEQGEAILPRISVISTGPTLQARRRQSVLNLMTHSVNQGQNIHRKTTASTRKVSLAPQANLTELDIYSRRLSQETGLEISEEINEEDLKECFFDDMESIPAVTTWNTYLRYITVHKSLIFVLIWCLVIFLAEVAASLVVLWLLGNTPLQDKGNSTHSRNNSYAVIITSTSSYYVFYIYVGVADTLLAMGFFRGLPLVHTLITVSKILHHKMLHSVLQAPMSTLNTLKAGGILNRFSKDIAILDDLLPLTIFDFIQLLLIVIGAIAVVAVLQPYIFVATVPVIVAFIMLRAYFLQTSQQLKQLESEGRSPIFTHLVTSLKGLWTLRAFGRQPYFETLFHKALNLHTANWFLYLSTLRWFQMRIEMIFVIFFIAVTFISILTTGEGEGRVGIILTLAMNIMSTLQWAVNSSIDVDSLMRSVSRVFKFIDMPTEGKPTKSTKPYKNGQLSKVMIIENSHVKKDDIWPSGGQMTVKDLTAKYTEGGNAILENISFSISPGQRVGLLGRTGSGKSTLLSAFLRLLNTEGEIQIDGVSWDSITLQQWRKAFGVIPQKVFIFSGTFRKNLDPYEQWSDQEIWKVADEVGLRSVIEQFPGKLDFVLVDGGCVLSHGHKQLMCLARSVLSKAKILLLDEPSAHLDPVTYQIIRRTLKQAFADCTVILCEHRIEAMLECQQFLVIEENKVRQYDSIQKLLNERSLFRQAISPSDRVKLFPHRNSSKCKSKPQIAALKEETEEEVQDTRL

Sequence of ΔF508-CFTR (P13569 other isoform, or with tags, fused parts or gaps DEL508-508): as above

Question: Which “Forskolin-Genistein induced halide flux in CFBE41o-” value (ΔF508-CFTR) does the source give for “UGT3A2: Ad-siRNA (adenovirus-expressed shRNA) knocking down UGT3A2; KD sequences SEQ ID NO: 56, 57; SEQ 57 used in Table 6 (guide AACATGGTCCGAGTAGAAG; listed as Homo sapiens)” here?
Answer: Its value is −5.485 fold stdev from the mean of the negative controls.

Question: And the “Forskolin-Genistein induced chloride flux in CF primary epithelial cells compared to control cells (non-CF)” value (ΔF508 CFTR [1])?
Answer: Its value is 22.9%.

Question: What about the “CFTRΔF508 cell surface expression” value (ΔF508 CFTR [2]; CFBE41o- cell culture upon TARGET Ad-siRNA, relative to E-cadherin signal, without Ad-siRNAs set at 0, 27° C. for 48 hrs set at 1) of the same substance?
Answer: Its value is 0.906.

Question: And the C-band/B-band ratio (ΔF508 CFTR [2]; cell-surface ΔF508 CFTR, band C fully glycosylated / band B core glycosylated, CFBE41o-)?
Answer: The C-band/B-band ratio was 0.278.
